The record followed here is article PMC12227328, “The Enzyme Glucose‐1‐Phosphate Thymidylyltransferase RmlA Plays a Crucial Role in the Pathogenesis of Pectobacterium actinidiae GX1” (Molecular Plant Pathology, 2025).

Test [1] addresses T1, RmlA (glucose-1-phosphate thymidylyltransferase, gene 1774) (Pectobacterium actinidiae, UniProt A0ABW8GFN0).
T1 construct: gene rfbA; intact rmlA cloned from GX1 genomic DNA into pET32a; fusion protein; E. coli ArcticExpress (DE3); FITC-labelled
Put plainly: microscale thermophoresis, FITC-labelled RmlA. As to conditions: read-out: binding affinity; 50 mM Tris-HCl, 1 mM MgCl2, 0.05% Tween 20, pH 8.0; ligand as disodium salt.

Test [2] concerns the target T2, RmlA (glucose-1-phosphate thymidylyltransferase, gene 1774) (Pectobacterium actinidiae, UniProt A0ABW8GFN0, G107A/D108A/N109A/G144A/E159A/V170A/E196A).
T2 construct: gene rfbA
As to conditions: read-out: binding affinity; 50 mM Tris-HCl, 1 mM MgCl2, 0.05% Tween 20, pH 8.0; ligand as disodium salt.

As for `O=P(O)(O)O[C@H]1O[C@H](CO)[C@@H](O)[C@H](O)[C@H]1O` [G-1-P], the Kd in test [1] was 0.0733 mM; in test [2], 8.96 mM.

`Cc1cn([C@H]2C[C@H](O)[C@@H](COP(=O)(O)OP(=O)(O)OP(=O)(O)O)O2)c(=O)[nH]c1=O` [dTTP]: the Kd in test [1] stood at 0.199 mM; in test [2] it was 2.71 mM.
